#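 Step 1: Grow cells in 96-well plates. Step 2: Expose to compound for 48 hours at 5 concentrations. Step 3: Interpolate endpoints linearly; if unreached, use highest concentration. TGI denotes the concentration required for complete inhibition of growth.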
# Key:
# Assay in all cases: NCI anticancer screen, dose series, 48 h
# HCT-15 colon = test system: HCT-15 colon
# NCI-H460 lung = test system: NCI-H460 lung
# MCF7 breast = test system: MCF7 breast
# UO-31 renal = test system: UO-31 renal
# HL-60(TB) leukemia = test system: HL-60(TB) leukemia
# U251 CNS = test system: U251 CNS
# OVCAR-8 ovarian = test system: OVCAR-8 ovarian
# SF-268 CNS = test system: SF-268 CNS
# MDA-MB-435 = test system: MDA-MB-435
# K-562 leukemia = test system: K-562 leukemia
# EKVX NSCLC = test system: EKVX NSCLC
# NCI-H522 lung = test system: NCI-H522 lung
# KM12 colon = test system: KM12 colon
# SNB-19 CNS = test system: SNB-19 CNS
# HOP-62 NSCLC = test system: HOP-62 NSCLC
# NCI-H23 lung = test system: NCI-H23 lung
# NCI/ADR-RES ovarian = test system: NCI/ADR-RES ovarian
# COLO 205 colon = test system: COLO 205 colon
# T-47D breast = test system: T-47D breast
# MDA-N = test system: MDA-N
# HT29 colon = test system: HT29 colon
# BT-549 breast = test system: BT-549 breast
# OVCAR-3 ovarian = test system: OVCAR-3 ovarian
# ACHN renal = test system: ACHN renal
# SK-MEL-2 melanoma = test system: SK-MEL-2 melanoma
# SW-620 colon = test system: SW-620 colon
# CCRF-CEM leukemia = test system: CCRF-CEM leukemia
# HCT-116 colon = test system: HCT-116 colon
# SN12C renal = test system: SN12C renal
# MALME-3M melanoma = test system: MALME-3M melanoma
# HOP-92 NSCLC = test system: HOP-92 NSCLC
# MOLT-4 leukemia = test system: MOLT-4 leukemia
# RXF 393 renal = test system: RXF 393 renal
# 786-0 renal = test system: 786-0 renal
# PC-3 prostate = test system: PC-3 prostate
# NCI-H226 lung = test system: NCI-H226 lung
# RPMI-8226 leukemia = test system: RPMI-8226 leukemia
# OVCAR-4 ovarian = test system: OVCAR-4 ovarian
# MDA-MB-231 breast = test system: MDA-MB-231 breast
# TK-10 renal = test system: TK-10 renal
# HCC-2998 colon = test system: HCC-2998 colon
# SF-295 CNS = test system: SF-295 CNS
# SR leukemia = test system: SR leukemia
# OVCAR-5 ovarian = test system: OVCAR-5 ovarian
# DU-145 prostate = test system: DU-145 prostate
# CAKI-1 renal = test system: CAKI-1 renal
# M14 melanoma = test system: M14 melanoma
# UACC-257 melanoma = test system: UACC-257 melanoma
# A549 NSCLC = test system: A549 NSCLC
# SF-539 CNS = test system: SF-539 CNS
# UACC-62 melanoma = test system: UACC-62 melanoma
# SK-OV-3 ovarian = test system: SK-OV-3 ovarian
# A498 renal = test system: A498 renal
# SK-MEL-5 melanoma = test system: SK-MEL-5 melanoma
# SK-MEL-28 melanoma = test system: SK-MEL-28 melanoma
smiles,measurement,setting,value
CC(C)(NO)/C(=N\O)c1ccccc1,TGI,HCT-15 colon,> 10 µM
same,TGI,NCI-H460 lung,> 10 µM
same,TGI,MCF7 breast,> 10 µM
same,TGI,UO-31 renal,> 10 µM
same,TGI,HL-60(TB) leukemia,> 10 µM
same,TGI,U251 CNS,> 10 µM
same,TGI,OVCAR-8 ovarian,> 10 µM
same,TGI,SF-268 CNS,> 10 µM
same,TGI,MDA-MB-435,> 10 µM
same,TGI,K-562 leukemia,> 10 µM
same,TGI,EKVX NSCLC,> 10 µM
same,TGI,NCI-H522 lung,> 10 µM
same,TGI,KM12 colon,> 10 µM
same,TGI,SNB-19 CNS,> 10 µM
same,TGI,HOP-62 NSCLC,> 10 µM
same,TGI,NCI-H23 lung,> 10 µM
same,TGI,NCI/ADR-RES ovarian,> 10 µM
same,TGI,COLO 205 colon,> 10 µM
same,TGI,T-47D breast,> 10 µM
same,TGI,MDA-N,> 10 µM
same,TGI,HT29 colon,> 10 µM
same,TGI,BT-549 breast,> 10 µM
same,TGI,OVCAR-3 ovarian,> 10 µM
same,TGI,ACHN renal,> 10 µM
same,TGI,SK-MEL-2 melanoma,> 10 µM
same,TGI,SW-620 colon,> 10 µM
same,TGI,CCRF-CEM leukemia,> 10 µM
same,TGI,HCT-116 colon,> 10 µM
same,TGI,SN12C renal,> 10 µM
same,TGI,MALME-3M melanoma,> 10 µM
same,TGI,HOP-92 NSCLC,> 10 µM
same,TGI,MOLT-4 leukemia,> 10 µM
same,TGI,RXF 393 renal,> 10 µM
same,TGI,786-0 renal,> 10 µM
same,TGI,PC-3 prostate,> 10 µM
same,TGI,NCI-H226 lung,> 10 µM
same,TGI,RPMI-8226 leukemia,> 10 µM
same,TGI,OVCAR-4 ovarian,> 10 µM
same,TGI,MDA-MB-231 breast,> 10 µM
same,TGI,TK-10 renal,> 10 µM
same,TGI,HCC-2998 colon,> 10 µM
same,TGI,SF-295 CNS,> 10 µM
same,TGI,SR leukemia,> 10 µM
same,TGI,OVCAR-5 ovarian,> 10 µM
same,TGI,DU-145 prostate,> 10 µM
same,TGI,CAKI-1 renal,> 10 µM
same,TGI,M14 melanoma,> 10 µM
same,TGI,UACC-257 melanoma,> 10 µM
CCCCCCCCCCCCOCC(COP(=O)(O)OCCN=[N+]=[N-])OC(=O)CCCCCCCCCCC (stereo unspecified),TGI,HCT-15 colon,> 100 µM
same,TGI,NCI-H460 lung,> 100 µM
same,TGI,A549 NSCLC,> 100 µM
same,TGI,SF-539 CNS,> 100 µM
same,TGI,MCF7 breast,> 100 µM
same,TGI,UO-31 renal,> 100 µM
same,TGI,UACC-62 melanoma,> 100 µM
same,TGI,U251 CNS,> 100 µM
same,TGI,OVCAR-8 ovarian,> 100 µM
same,TGI,SF-268 CNS,> 100 µM
same,TGI,MDA-MB-435,> 100 µM
same,TGI,K-562 leukemia,> 100 µM
same,TGI,NCI-H522 lung,> 100 µM
same,TGI,KM12 colon,> 100 µM
same,TGI,SNB-19 CNS,> 100 µM
same,TGI,HOP-62 NSCLC,> 100 µM
same,TGI,NCI-H23 lung,> 100 µM
same,TGI,NCI/ADR-RES ovarian,> 100 µM
same,TGI,COLO 205 colon,> 100 µM
same,TGI,T-47D breast,> 100 µM
same,TGI,SK-OV-3 ovarian,> 100 µM
same,TGI,MDA-N,> 100 µM
same,TGI,HT29 colon,> 100 µM
same,TGI,OVCAR-3 ovarian,> 100 µM
same,TGI,ACHN renal,> 100 µM
same,TGI,SK-MEL-2 melanoma,> 100 µM
same,TGI,SW-620 colon,> 100 µM
same,TGI,HCT-116 colon,> 100 µM
same,TGI,SN12C renal,> 100 µM
same,TGI,MALME-3M melanoma,> 100 µM
same,TGI,HOP-92 NSCLC,> 100 µM
same,TGI,MOLT-4 leukemia,> 100 µM
same,TGI,A498 renal,> 100 µM
same,TGI,RXF 393 renal,> 100 µM
same,TGI,786-0 renal,> 100 µM
same,TGI,SK-MEL-5 melanoma,> 100 µM
same,TGI,PC-3 prostate,> 100 µM
same,TGI,RPMI-8226 leukemia,> 100 µM
same,TGI,OVCAR-4 ovarian,> 100 µM
same,TGI,MDA-MB-231 breast,> 100 µM
same,TGI,TK-10 renal,> 100 µM
same,TGI,HCC-2998 colon,> 100 µM
same,TGI,SF-295 CNS,> 100 µM
same,TGI,OVCAR-5 ovarian,> 100 µM
same,TGI,DU-145 prostate,> 100 µM
same,TGI,CAKI-1 renal,> 100 µM
same,TGI,M14 melanoma,> 100 µM
same,TGI,SK-MEL-28 melanoma,> 100 µM

# Source: PubChem BioAssay (NCI)
